Values of other authors as cited in patent US10772852B2, “Compositions and methods for combination pharmacological treatments to induce a prolonged, mild decrease in core body temperature” (priority 2015, dated 2020).

Legend:
mice = settings: Reilly et al. 2013
[1] = Boyle et al. 2013
[2] = tested on: women with ovarian cancer; settings: on average, Kumar et al. (2013)

Row | Structure (SMILES) | effect on obesity, diabetes, and fatty liver (mice) | reduction in the risk of cardiovascular events ([1]; 29 different studies) | reduction in the risk of MI ([1]; nine studies) | reduction in the risk of heart failure ([1]; seven studies) | likelihood to survive for 5 years after diagnosis versus women not taking the drug [2]
1 | CC(C)c1ccc2oc3nc(N)c(C(=O)O)cc3c(=O)c2c1 [amlexanox] | reverse obesity, diabetes, and fatty liver in mice |  |  |  | 
2 | CN(C)C(=N)N=C(N)N [metformin] |  | 10% | 12% | 10% | nearly four times more likely to survive for 5 years
